As a reminder, the IC50 is the concentration that gives 50% inhibition. A lower IC50 goes with higher potency.

In experiment [1] the test system is RS4; 11 cell line. Description: CellTiter-Glo Luminescent Cell Viability Assay, cell growth inhibition. Type of experiment: cell-based. The conditions noted are these: Homo sapiens, 96 h, 4 days. The protocol:
(§1) Cell growth inhibitory activity of representative MDM2 protein degraders was determined using CellTiter-Glo® Luminescent Cell Viability Assay. Cells were seeded in 384-well white opaque cell culture plates at a density of 2,000 cells/well with serially diluted compounds and incubated at 37° C. in an atmosphere of 95% air and 5% CO2 for 4 days. Cell viability was determined using the CellTiter-Glo® Luminescent Cell Viability Assay Kit (Promega, Madison, WI) according to the manufacture's instruction. Briefly, a volume of CellTiter-Glo® Reagent equal to the volume of cell culture medium was added to each well, and then the plates were incubated at room temperature for 10-20 minutes. The luminescent signal was measured using a Tecan Infinite M1000 multimode microplate reader (Tecan, Morrisville, NC). The half maximal inhibitory concentration (IC50) was calculated using the GraphPad Prism 5 software (GraphPad Software, La Jolla, CA). Cpd. […] The structure of Cpd.

Experiment [2] deals with MV4-11 cell line. The description is as above. Type of experiment: cell-based. The settings on record: Homo sapiens, 96 h, 4 days. Here is the method:
as §1

For the compound `O=C1CCC(N2Cc3c(NCCOCCOCCOCCOCCNC(=O)c4ccc(NC(=O)[C@@H]5NC6(CCCCC6)[C@@]6(C(=O)Nc7cc(Cl)ccc76)[C@H]5c5cccc(Cl)c5F)cc4)cccc3C2=O)C(=O)N1` (stereo partly drawn) [Cpd. No. 23, (3′R,4'S,5′R)-6″-chloro-4′-(3-chloro-2-fluorophenyl)-N-(4-((14-((2-(2,6-dioxopiperidin-3-yl)-1-oxoisoindolin-4-yl)amino)-3,6,9,12-tetraoxatetradecyl)carbamoyl)phenyl)-2″-oxodispiro[cyclohexane-1,2′-pyrrolidine-3′,3″-indoline]-5′-carboxamide], the IC50 in experiment [1] turned out to be 19 nM; in experiment [2], 21 nM.

With `O=C(CNc1cccc2c1C(=O)N(C1CCC(=O)NC1=O)C2=O)NCCCOCCOCCOCCCNC(=O)c1ccc(NC(=O)[C@@H]2NC3(CCCCC3)[C@@]3(C(=O)Nc4cc(Cl)ccc43)[C@H]2c2cccc(Cl)c2F)cc1` (stereo partly drawn) [Cpd. No. 3, (3′R,4'S,5′R)-6″-chloro-4′-(3-chloro-2-fluorophenyl)-N-(4-((1-((2-(2,6-dioxopiperidin-3-yl)-1,3-dioxoisoindolin-4-yl)amino)-2-oxo-7,10,13-trioxa-3-azahexadecan-16-yl)carbamoyl)phenyl)-2″-oxodispiro[cyclohexane-1,2′-pyrrolidine-3′,3″-indoline]-5′-carboxamide], the half-inhibitory concentration (IC50) in experiment [1] is 22 nM; in experiment [2] it was 5.6 nM.

For `O=C1CCC(N2Cc3c(NCCOCCNC(=O)c4ccc(NC(=O)[C@@H]5NC6(CCCCC6)[C@@]6(C(=O)Nc7cc(Cl)ccc76)[C@H]5c5cccc(Cl)c5F)cc4)cccc3C2=O)C(=O)N1` (stereo partly drawn) [Cpd. No. 20, (3′R,4'S,5′R)-6″-chloro-4′-(3-chloro-2-fluorophenyl)-N-(4-((2-(2-((2-(2,6-dioxopiperidin-3-yl)-1-oxoisoindolin-4-yl)amino)ethoxy)ethyl)carbamoyl)phenyl)-2″-oxodispiro[cyclohexane-1,2′-pyrrolidine-3′,3″-indoline]-5′-carboxamide], the IC50 in experiment [1] worked out at 8.5 nM; in experiment [2], 7.6 nM.

Turning to `CCN1[C@@H](C(=O)NC23CCC(C(=O)NCCOCCOCCOCCOCC(=O)N[C@H](C(=O)N4C[C@H](O)C[C@H]4C(=O)NCc4ccc(-c5scnc5C)cc4)C(C)(C)C)(CC2)CC3)[C@H](c2cccc(Cl)c2F)[C@]2(C(=O)Nc3cc(Cl)ccc32)C12CCCCC2` [Cpd. No. 48, (3′R,4'S,5′R)-6″-chloro-4′-(3-chloro-2-fluorophenyl)-1′-ethyl-N-(4-(((S)-16-((2S,4R)-4-hydroxy-2-((4-(4-methylthiazol-5-yl)benzyl)carbamoyl)pyrrolidine-1-carbonyl)-17,17-dimethyl-14-oxo-3,6,9,12-tetraoxa-15-azaoctadecyl)carbamoyl)bicyclo[2.2.2]octan-1-yl)-2″-oxodispiro[cyclohexane-1,2′-pyrrolidine-3′,3″-indoline]-5′-carboxamide], the results for the IC50 in experiment [1] and in experiment [2] were 190 nM and 130 nM, respectively.

Consider `O=C1CCC(N2C(=O)c3cccc(NCCNC(=O)c4ccc(NC(=O)[C@@H]5NC6(CCCCC6)[C@@]6(C(=O)Nc7cc(Cl)ccc76)[C@H]5c5cccc(Cl)c5F)cc4)c3C2=O)C(=O)N1` (stereo partly drawn) [Cpd. No. 7, (3′R,4'S,5′R)-6″-chloro-4′-(3-chloro-2-fluorophenyl)-N-(4-((2-((2-(2,6-dioxopiperidin-3-yl)-1,3-dioxoisoindolin-4-yl)amino)ethyl)carbamoyl)phenyl)-2″-oxodispiro[cyclohexane-1,2′-pyrrolidine-3′,3″-indoline]-5′-carboxamide], for which the concentration for half-maximal inhibition (IC50) in experiment [1] was determined as 15 nM; in experiment [2] it was 20 nM.

Regarding `O=C1CCC(N2C(=O)c3cccc(NCCCCNC(=O)c4ccc(NC(=O)[C@@H]5NC6(CCCCC6)[C@@]6(C(=O)Nc7cc(Cl)ccc76)[C@H]5c5cccc(Cl)c5F)cc4)c3C2=O)C(=O)N1` (stereo partly drawn) [Cpd. No. 9, (3′R,4'S,5′R)-6″-chloro-4′-(3-chloro-2-fluorophenyl)-N-(4-((4-((2-(2,6-dioxopiperidin-3-yl)-1,3-dioxoisoindolin-4-yl)amino)butyl)carbamoyl)phenyl)-2″-oxodispiro[cyclohexane-1,2′-pyrrolidine-3′,3″-indoline]-5′-carboxamide], the IC50 in experiment [1] came to 10 nM; in experiment [2] it was 163 nM.

Regarding `CCN1[C@@H](C(=O)NC23CCC(C(=O)NCCCOCCOCCOCCCNC(=O)COc4cccc5c4C(=O)N(C4CCC(=O)NC4=O)C5=O)(CC2)CC3)[C@H](c2cccc(Cl)c2F)[C@]2(C(=O)Nc3cc(Cl)ccc32)C12CCCCC2` (stereo partly drawn) [Cpd. No. 46, (3′R,4'S,5′R)-6″-chloro-4′-(3-chloro-2-fluorophenyl)-N-(4-((1-((2-(2,6-dioxopiperidin-3-yl)-1,3-dioxoisoindolin-4-yl)oxy)-2-oxo-7,10,13-trioxa-3-azahexadecan-16-yl)carbamoyl)bicyclo[2.2.2]octan-1-yl)-1′-ethyl-2″-oxodispiro[cyclohexane-1,2′-pyrrolidine-3′,3″-indoline]-5′-carboxamide], the IC50 in experiment [1] and in experiment [2] was 20 nM throughout.

With `O=C1CCC(N2C(=O)c3cccc(NCCOCCOCCOCCOc4ccc(NC(=O)c5ccc(NC(=O)[C@@H]6NC7(CCCCC7)[C@@]7(C(=O)Nc8cc(Cl)ccc87)[C@H]6c6cccc(Cl)c6F)cc5)cc4)c3C2=O)C(=O)N1` (stereo partly drawn) [Cpd. No. 6, (3′R,4'S,5′R)-6″-chloro-4′-(3-chloro-2-fluorophenyl)-N-(4-((4-(2-(2-(2-(2-((2-(2,6-dioxopiperidin-3-yl)-1,3-dioxoisoindolin-4-yl)amino)ethoxy)ethoxy)ethoxy)ethoxy)phenyl)carbamoyl)phenyl)-2″-oxodispiro[cyclohexane-1,2′-pyrrolidine-3′,3″-indoline]-5′-carboxamide], the figures for the IC50 in experiment [1] and in experiment [2] were 38 nM and 37 nM, respectively.

On to `O=C1CCC(N2C(=O)c3cccc(NCCOCCOCCOCCOCCOCCOCCOCCNC(=O)c4ccc(NC(=O)[C@@H]5NC6(CCCCC6)[C@@]6(C(=O)Nc7cc(Cl)ccc76)[C@H]5c5cccc(Cl)c5F)cc4)c3C2=O)C(=O)N1` (stereo partly drawn) [Cpd. No. 16, (3′R,4'S,5′R)-6″-chloro-4′-(3-chloro-2-fluorophenyl)-N-(4-((23-((2-(2,6-dioxopiperidin-3-yl)-1,3-dioxoisoindolin-4-yl)amino)-3,6,9,12,15,18,21-heptaoxatricosyl)carbamoyl)phenyl)-2″-oxodispiro[cyclohexane-1,2′-pyrrolidine-3′,3″-indoline]-5′-carboxamide], for which the IC50 in experiment [1] was 4.7 nM; in experiment [2], 2.7 nM.

On to `O=C1CCC(N2C(=O)c3cccc(NCCOCCOCCNC(=O)c4ccc(NC(=O)[C@@H]5NC6(CCCCC6)[C@@]6(C(=O)Nc7cc(Cl)ccc76)[C@H]5c5cccc(Cl)c5F)nc4)c3C2=O)C(=O)N1` (stereo partly drawn) [Cpd. No. 24, (3′R,4'S,5′R)-6″-chloro-4′-(3-chloro-2-fluorophenyl)-N-(5-((2-(2-(2-((2-(2,6-dioxopiperidin-3-yl)-1,3-dioxoisoindolin-4-yl)amino)ethoxy)ethoxy)ethyl)carbamoyl)pyridin-2-yl)-2″-oxodispiro[cyclohexane-1,2′-pyrrolidine-3′,3″-indoline]-5′-carboxamide], for which the IC50 in experiment [1] was found to be 7 nM; in experiment [2], 5 nM.

For the compound `O=C1CCC(N2C(=O)c3cccc(NCCCOCCCCOCCCNC(=O)c4ccc(NC(=O)[C@@H]5NC6(CCCCC6)[C@@]6(C(=O)Nc7cc(Cl)ccc76)[C@H]5c5cccc(Cl)c5F)cc4)c3C2=O)C(=O)N1` (stereo partly drawn) [Cpd. No. 17, (3′R,4'S,5′R)-6″-chloro-4′-(3-chloro-2-fluorophenyl)-N-(4-((3-(4-(3-((2-(2,6-dioxopiperidin-3-yl)-1,3-dioxoisoindolin-4-yl)amino)propoxy)butoxy)propyl)carbamoyl)phenyl)-2″-oxodispiro[cyclohexane-1,2′-pyrrolidine-3′,3″-indoline]-5′-carboxamide], the IC50 in experiment [1] was found to be 19 nM; in experiment [2] it was 21 nM.

For the compound `O=C(COc1cccc2c1C(=O)N(C1CCC(=O)NC1=O)C2=O)NCCCOCCOCCOCCCNC(=O)c1ccc(NC(=O)[C@@H]2NC3(CCCCC3)[C@@]3(C(=O)Nc4cc(Cl)ccc43)[C@H]2c2cccc(Cl)c2F)cc1` (stereo partly drawn) [Cpd. No. 2, (3′R,4'S,5′R)-6″-chloro-4′-(3-chloro-2-fluorophenyl)-N-(4-((1-((2-(2,6-dioxopiperidin-3-yl)-1,3-dioxoisoindolin-4-yl)oxy)-2-oxo-7,10,13-trioxa-3-azahexadecan-16-yl)carbamoyl)phenyl)-2″-oxodispiro[cyclohexane-1,2′-pyrrolidine-3′,3″-indoline]-5′-carboxamide], the IC50 in experiment [1] is 85 nM; in experiment [2], 157 nM.

Regarding `O=C1CCC(N2C(=O)c3cccc(NCCCOCCOCCOCCCNC(=O)c4ccc(NC(=O)[C@@H]5NC6(CCCCC6)[C@@]6(C(=O)Nc7cc(Cl)ccc76)[C@H]5c5cccc(Cl)c5F)cc4)c3C2=O)C(=O)N1` (stereo partly drawn) [Cpd. No. 18, (3′R,4'S,5′R)-6″-chloro-4′-(3-chloro-2-fluorophenyl)-N-(4-((3-(2-(2-(3-((2-(2,6-dioxopiperidin-3-yl)-1,3-dioxoisoindolin-4-yl)amino)propoxy)ethoxy)ethoxy)propyl)carbamoyl)phenyl)-2″-oxodispiro[cyclohexane-1,2′-pyrrolidine-3′,3″-indoline]-5′-carboxamide], the IC50 turned out to be 7.4 nM in experiment [1] and 5.2 nM in experiment [2].

`O=C1CCC(N2C(=O)c3cccc(NCCCCCCNC(=O)c4ccc(NC(=O)[C@@H]5NC6(CCCCC6)[C@@]6(C(=O)Nc7cc(Cl)ccc76)[C@H]5c5cccc(Cl)c5F)cc4)c3C2=O)C(=O)N1` (stereo partly drawn) [Cpd. No. 11, (3′R,4'S,5′R)-6″-chloro-4′-(3-chloro-2-fluorophenyl)-N-(4-((6-((2-(2,6-dioxopiperidin-3-yl)-1,3-dioxoisoindolin-4-yl)amino)hexyl)carbamoyl)phenyl)-2″-oxodispiro[cyclohexane-1,2′-pyrrolidine-3′,3″-indoline]-5′-carboxamide]: the IC50 is 30 nM in experiment [1] and 42 nM in experiment [2].

Source of the values: patent publication US12637473B2, “MDM2 protein degraders” (THE REGENTS OF THE UNIVERSITY OF MICHIGAN, priority 2016, dated 2026).
